The test system of one test is gram-negative bacteria. As to conditions: prior art statement; cited from earlier work.
Another test deals with gram-positive bacteria. As to conditions: prior art statement; cited from earlier work.
The subject of the next test is Pseudomonas aeruginosa. As to conditions: prior art statement; cited from earlier work.
Test [1] relates to Acinetobacter anitratus IID 876. In words: Antibacterial activity (MIC), standard agar dilution streak method. Type of test: cell-based. The method, then: (§1) The antibacterial activities of the compounds of the present invention were assayed by the standard agar dilution streak method against Gram-positive and Gram-negative bacteria [Chemotherapy, 22, 1126 (1974)].
In general terms: Agar dilution tests growth on a series of plates holding different concentrations.

The subject of test [2] is Alcaligenes faecalis 0104002. Described as above. The class given is cell-based. The note with it: Alcaligenes faecalis 0104002. The method, then:
as §1

The test system of test [3] is Bacillus subtilis PCI 219. The description is as above. The class given is cell-based. As to conditions: Bacillus subtilis, PCI219. On the procedure:
as §1

Test [4] concerns Citrobacter freundii IID 976. The test is described as above. The class given is cell-based. The note with it: Citrobacter freundii IID 976. On the procedure: as §1
Test [5] has as its system Enterobacter cloacae IID 977. The test is described as above. Type of test: cell-based. The note with it: Enterobacter cloacae IID 977. On the procedure: as §1
Test [6] concerns Escherichia coli NIHJ JC-2. The description is as above. Type of test: cell-based. As to conditions: Escherichia coli NIHJ JC-2. The method, then:
as §1

Test [7] has as its system Klebsiella pneumoniae IFO 3512. The test is described as above. Type of test: cell-based. As to conditions: Klebsiella pneumoniae IFO 3512. On the procedure: as §1
The next test deals with P. mirabilis IID 994. Described as above. The note with it: Proteus mirabilis, IID994; P. mirabilis IID 994; read-out: Minimum inhibitory concentration. Type of test: cell-based. On the procedure:
as §1

The next test deals with P. morganii IID 602. The test is described as above. Type of test: cell-based. As to conditions: P. morganii IID 602. On the procedure:
as §1

The subject of a further test is Proteus vulgaris 3167. The test is described as above. As to conditions: Proteus vulgaris 3167. The class given is cell-based. The method, then: as §1
Test [8] relates to Pseudomonas aeruginosa V-1. The description is as above. Type of test: cell-based. The note with it: V1; Pseudomonas aeruginosa V-1; read-out: Minimum inhibitory concentration. On the procedure: as §1
The next test relates to S. epidermidis IID 866. Described as above. The class given is cell-based. On the procedure:
as §1

Test [9] concerns Salmonella enteritidis IID 604. The description is as above. Type of test: cell-based. As to conditions: Salmonella enteritidis IID 604. The method, then:
as §1

Test [10] deals with Serratia marcescens IID 618. The description is as above. The class given is cell-based. The note with it: Serratia marcescens IID 618. On the procedure: as §1
Test [11] has as its system Staphylococcus aureus 209 p. The description is as above. Type of test: cell-based. The note with it: Staphylococcus aureus 209 p; read-out: Minimum inhibitory concentration. On the procedure:
as §1

Test [12] relates to Yersinia enterocolitica IID 981. The description is as above. Type of test: cell-based. The note with it: Yersinia enterocolitica IID 981. The method, then: as §1
In the next test the test system is S. aureus Terajima. The description is as above. As to conditions: S. aureus Terajima. The class given is cell-based, Staphylococcus aureus. The method, then: as §1
A further test deals with E. coli ATCC 10536. Described as above. The class given is cell-based, Escherichia coli. The method, then: as §1
The subject of another test is Shigella sonnei IID 969. In words: microbe, parasite or virus in culture. Type of test: cell-based. The note with it: Shigella sonnei IID 969. The method, then:
as §1

The subject of a further test is P. aeruginosa IFO 12689. As to the kind of experiment: Antibacterial activity (MIC), standard agar dilution streak method. Type of test: cell-based, Pseudomonas aeruginosa. The note with it: P. aeruginosa IFO 12689. The method, then:
as §1

Counter-ions that a name gives are not always drawn.

As to `CCn1cc(C(=O)O)c(=O)c2cnc(N3CCNCC3)nc21` [pipemidic acid], the “effectiveness in the therapy of infections due to gram-negative bacteria” value (“effectiveness in the therapy” for short) in the test on gram-negative bacteria was “highly effective”. For the same compound, the “activities against most gram-positive bacteria” value in the test with gram-positive bacteria is reported as “weak activities”. In the test with Pseudomonas aeruginosa, the “activities against Pseudomonas aeruginosa” value was “weak activities”.
Regarding `CCn1cc(C(=O)O)c(=O)c2cc(F)c(N3CCC(O)CC3)c(F)c21` [Example 16, 1-Ethyl-6,8-difluoro-1,4-dihydro-7-(4-hydroxy-1-piperidinyl)-4-oxoquinoline-3-carboxylic acid silver salt], the Minimum inhibitory concentration in test [1] is 1.56 µg/mL; in test [2], 3.13 µg/mL; in test [3], not above 0.05 µg/mL; in test [4], 1.56 µg/mL; in test [5] it was 3.13 µg/mL; in [6], 0.78 µg/mL. In addition, the Minimum inhibitory concentration in test [7] is 0.10 µg/mL; in the test with P. morganii IID 602, 1.56 µg/mL; with Proteus vulgaris 3167, 0.10 µg/mL; in the test on S. epidermidis IID 866 it was 0.39 µg/mL; in test [9] it was 1.56 µg/mL; in test [10], 3.13 µg/mL. Besides, the Minimum inhibitory concentration is 1.56 µg/mL in test [12]; 0.39 µg/mL in the test on S. aureus Terajima; 0.78 µg/mL in the test with E. coli ATCC 10536; 0.39 µg/mL in the test with Shigella sonnei IID 969; 25 µg/mL in the test on P. aeruginosa IFO 12689. Further, the MIC in the test on P. mirabilis IID 994 turned out to be 0.39 µg/mL; in [8], 3.13 µg/mL; in [11] it was 0.2 µg/mL.
As to `CCn1cc(C(=O)O)c(=O)c2cnc(N3CCCC3)nc21` [piromidic acid], the “effectiveness in the therapy” value in the test on gram-negative bacteria is “highly effective”. Moreover, the “activities against most gram-positive bacteria” value in the test with gram-positive bacteria is listed as “weak activities”. For the same compound, the “activities against Pseudomonas aeruginosa” value with Pseudomonas aeruginosa is “weak activities”.
In the case of `CCn1cc(C(=O)O)c(=O)c2ccc(C)nc21` [nalidixic acid], the “effectiveness in the therapy” value in the test with gram-negative bacteria is listed as “highly effective”. Moreover, the “activities against most gram-positive bacteria” value in the test on gram-positive bacteria was “weak activities”. For the same compound, the “activities against Pseudomonas aeruginosa” value with Pseudomonas aeruginosa is on record as “weak activities”.

Source of the values: patent US4398029A, “Quinoline carboxylic acid derivatives and process for the preparation” (Kyorin Seiyaku Kabushiki Kaisha, priority 1981, dated 1983).
